Assays:
[1] = target: T1, Serine/threonine-protein kinase STK11 (Homo sapiens) (UniProt Q15831); assay: Selectivity interaction (KinomeScan (DiscoverX)) EUB0000655a STK11; conditions: at 10 µM
T1 sequence (whole entry): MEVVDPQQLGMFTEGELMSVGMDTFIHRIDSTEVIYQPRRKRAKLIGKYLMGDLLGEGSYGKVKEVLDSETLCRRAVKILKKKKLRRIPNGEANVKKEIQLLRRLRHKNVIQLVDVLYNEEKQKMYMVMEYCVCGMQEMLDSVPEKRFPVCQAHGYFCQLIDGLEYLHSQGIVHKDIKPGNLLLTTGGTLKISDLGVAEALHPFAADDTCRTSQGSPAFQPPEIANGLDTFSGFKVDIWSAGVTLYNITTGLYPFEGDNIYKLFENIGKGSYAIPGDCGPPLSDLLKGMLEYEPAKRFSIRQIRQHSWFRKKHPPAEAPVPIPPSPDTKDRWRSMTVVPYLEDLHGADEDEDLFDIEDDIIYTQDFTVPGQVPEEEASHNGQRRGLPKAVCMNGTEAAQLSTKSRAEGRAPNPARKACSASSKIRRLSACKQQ

[2] = target: T2, Phosphatidylinositol 5-phosphate 4-kinase type-2 gamma (Homo sapiens) (UniProt Q8TBX8); assay: Selectivity interaction (KinomeScan (DiscoverX)) EUB0000655a PIP4K2C; conditions: at 10 µM
T2 sequence (whole entry): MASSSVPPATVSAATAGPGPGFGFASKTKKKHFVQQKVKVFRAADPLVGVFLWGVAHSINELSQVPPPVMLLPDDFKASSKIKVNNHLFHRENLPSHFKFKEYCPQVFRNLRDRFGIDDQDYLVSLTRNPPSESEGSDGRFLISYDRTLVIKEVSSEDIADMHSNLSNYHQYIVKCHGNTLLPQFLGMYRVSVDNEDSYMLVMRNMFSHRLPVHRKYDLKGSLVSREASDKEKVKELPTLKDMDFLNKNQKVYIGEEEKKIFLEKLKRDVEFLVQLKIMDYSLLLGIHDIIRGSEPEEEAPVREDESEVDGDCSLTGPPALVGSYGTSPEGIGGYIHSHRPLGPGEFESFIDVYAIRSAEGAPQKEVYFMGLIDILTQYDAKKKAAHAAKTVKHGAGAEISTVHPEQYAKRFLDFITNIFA

[3] = target: T3, Phosphorylase b kinase gamma catalytic chain, liver/testis isoform (Homo sapiens) (UniProt P15735); assay: Selectivity interaction (KinomeScan (DiscoverX)) EUB0001079a PHKG2; conditions: at 1 µM
T3 sequence (whole entry): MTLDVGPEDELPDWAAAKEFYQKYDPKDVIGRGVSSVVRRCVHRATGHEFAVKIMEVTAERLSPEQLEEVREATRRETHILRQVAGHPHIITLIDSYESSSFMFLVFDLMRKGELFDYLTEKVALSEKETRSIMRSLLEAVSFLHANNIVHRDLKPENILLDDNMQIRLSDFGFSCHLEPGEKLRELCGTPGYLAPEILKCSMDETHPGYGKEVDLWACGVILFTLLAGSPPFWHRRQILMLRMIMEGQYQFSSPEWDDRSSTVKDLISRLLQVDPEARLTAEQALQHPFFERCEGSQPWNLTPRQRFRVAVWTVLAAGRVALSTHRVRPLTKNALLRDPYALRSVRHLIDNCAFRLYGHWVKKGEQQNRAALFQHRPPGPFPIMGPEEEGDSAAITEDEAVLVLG

[4] = target: Casein kinase I isoform epsilon (Homo sapiens, UniProt P49674); assay: Selectivity interaction (KinomeScan (DiscoverX)) EUB0001079a CSNK1E; conditions: at 1 µM
Casein kinase I isoform epsilon, sequence (P49674 whole entry, looked up, canonical isoform): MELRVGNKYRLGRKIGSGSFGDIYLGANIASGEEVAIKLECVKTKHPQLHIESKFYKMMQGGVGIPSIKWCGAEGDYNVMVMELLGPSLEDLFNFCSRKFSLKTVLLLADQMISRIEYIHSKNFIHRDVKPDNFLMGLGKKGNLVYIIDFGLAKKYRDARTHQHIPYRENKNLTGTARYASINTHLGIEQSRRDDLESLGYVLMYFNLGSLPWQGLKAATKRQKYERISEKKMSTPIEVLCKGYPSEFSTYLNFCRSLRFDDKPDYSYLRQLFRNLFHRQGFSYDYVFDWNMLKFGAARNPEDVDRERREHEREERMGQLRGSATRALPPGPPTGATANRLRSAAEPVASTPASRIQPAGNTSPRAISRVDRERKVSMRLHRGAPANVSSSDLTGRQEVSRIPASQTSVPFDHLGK

[5] = target: Serine/threonine-protein kinase SBK1 (Homo sapiens) (UniProt Q52WX2); conditions: at 10 µM
Serine/threonine-protein kinase SBK1 (Homo sapiens), sequence (Q52WX2 whole entry): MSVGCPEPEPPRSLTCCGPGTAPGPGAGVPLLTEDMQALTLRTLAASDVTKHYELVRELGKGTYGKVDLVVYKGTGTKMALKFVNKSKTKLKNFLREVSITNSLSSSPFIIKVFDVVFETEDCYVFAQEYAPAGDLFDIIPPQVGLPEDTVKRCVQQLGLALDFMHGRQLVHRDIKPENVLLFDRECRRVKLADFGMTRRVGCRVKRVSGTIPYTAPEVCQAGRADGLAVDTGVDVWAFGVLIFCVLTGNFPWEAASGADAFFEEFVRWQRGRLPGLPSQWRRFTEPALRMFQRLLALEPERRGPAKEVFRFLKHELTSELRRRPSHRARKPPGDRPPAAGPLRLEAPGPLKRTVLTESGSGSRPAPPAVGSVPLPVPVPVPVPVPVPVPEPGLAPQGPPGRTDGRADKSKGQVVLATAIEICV

[6] = target: T4, Hormonally up-regulated neu tumor-associated kinase (Homo sapiens) (UniProt P57058); conditions: at 10 µM
T4 sequence (whole entry): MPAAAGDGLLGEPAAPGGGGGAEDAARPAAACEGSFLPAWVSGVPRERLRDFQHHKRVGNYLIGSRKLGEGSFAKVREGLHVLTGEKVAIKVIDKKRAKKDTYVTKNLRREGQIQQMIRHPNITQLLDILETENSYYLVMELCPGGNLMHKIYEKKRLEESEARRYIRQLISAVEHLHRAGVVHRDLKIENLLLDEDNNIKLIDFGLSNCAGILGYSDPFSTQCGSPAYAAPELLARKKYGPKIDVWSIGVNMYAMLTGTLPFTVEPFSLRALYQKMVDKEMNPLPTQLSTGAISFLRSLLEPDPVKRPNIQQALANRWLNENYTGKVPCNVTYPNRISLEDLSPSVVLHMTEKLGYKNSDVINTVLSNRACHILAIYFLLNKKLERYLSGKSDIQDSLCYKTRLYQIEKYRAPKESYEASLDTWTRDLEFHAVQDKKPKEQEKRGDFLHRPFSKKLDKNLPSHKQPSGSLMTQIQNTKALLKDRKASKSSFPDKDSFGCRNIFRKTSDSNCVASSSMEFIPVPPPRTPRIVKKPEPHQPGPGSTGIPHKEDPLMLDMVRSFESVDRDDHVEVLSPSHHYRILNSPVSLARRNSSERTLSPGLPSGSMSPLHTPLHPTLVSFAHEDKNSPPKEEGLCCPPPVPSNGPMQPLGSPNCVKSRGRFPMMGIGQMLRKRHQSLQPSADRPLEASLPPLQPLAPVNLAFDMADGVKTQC

[7] = target: Serine/threonine-protein kinase MRCK alpha (Homo sapiens) (UniProt Q5VT25); conditions: at 10 µM
Serine/threonine-protein kinase MRCK alpha (Homo sapiens), sequence (Q5VT25 whole entry): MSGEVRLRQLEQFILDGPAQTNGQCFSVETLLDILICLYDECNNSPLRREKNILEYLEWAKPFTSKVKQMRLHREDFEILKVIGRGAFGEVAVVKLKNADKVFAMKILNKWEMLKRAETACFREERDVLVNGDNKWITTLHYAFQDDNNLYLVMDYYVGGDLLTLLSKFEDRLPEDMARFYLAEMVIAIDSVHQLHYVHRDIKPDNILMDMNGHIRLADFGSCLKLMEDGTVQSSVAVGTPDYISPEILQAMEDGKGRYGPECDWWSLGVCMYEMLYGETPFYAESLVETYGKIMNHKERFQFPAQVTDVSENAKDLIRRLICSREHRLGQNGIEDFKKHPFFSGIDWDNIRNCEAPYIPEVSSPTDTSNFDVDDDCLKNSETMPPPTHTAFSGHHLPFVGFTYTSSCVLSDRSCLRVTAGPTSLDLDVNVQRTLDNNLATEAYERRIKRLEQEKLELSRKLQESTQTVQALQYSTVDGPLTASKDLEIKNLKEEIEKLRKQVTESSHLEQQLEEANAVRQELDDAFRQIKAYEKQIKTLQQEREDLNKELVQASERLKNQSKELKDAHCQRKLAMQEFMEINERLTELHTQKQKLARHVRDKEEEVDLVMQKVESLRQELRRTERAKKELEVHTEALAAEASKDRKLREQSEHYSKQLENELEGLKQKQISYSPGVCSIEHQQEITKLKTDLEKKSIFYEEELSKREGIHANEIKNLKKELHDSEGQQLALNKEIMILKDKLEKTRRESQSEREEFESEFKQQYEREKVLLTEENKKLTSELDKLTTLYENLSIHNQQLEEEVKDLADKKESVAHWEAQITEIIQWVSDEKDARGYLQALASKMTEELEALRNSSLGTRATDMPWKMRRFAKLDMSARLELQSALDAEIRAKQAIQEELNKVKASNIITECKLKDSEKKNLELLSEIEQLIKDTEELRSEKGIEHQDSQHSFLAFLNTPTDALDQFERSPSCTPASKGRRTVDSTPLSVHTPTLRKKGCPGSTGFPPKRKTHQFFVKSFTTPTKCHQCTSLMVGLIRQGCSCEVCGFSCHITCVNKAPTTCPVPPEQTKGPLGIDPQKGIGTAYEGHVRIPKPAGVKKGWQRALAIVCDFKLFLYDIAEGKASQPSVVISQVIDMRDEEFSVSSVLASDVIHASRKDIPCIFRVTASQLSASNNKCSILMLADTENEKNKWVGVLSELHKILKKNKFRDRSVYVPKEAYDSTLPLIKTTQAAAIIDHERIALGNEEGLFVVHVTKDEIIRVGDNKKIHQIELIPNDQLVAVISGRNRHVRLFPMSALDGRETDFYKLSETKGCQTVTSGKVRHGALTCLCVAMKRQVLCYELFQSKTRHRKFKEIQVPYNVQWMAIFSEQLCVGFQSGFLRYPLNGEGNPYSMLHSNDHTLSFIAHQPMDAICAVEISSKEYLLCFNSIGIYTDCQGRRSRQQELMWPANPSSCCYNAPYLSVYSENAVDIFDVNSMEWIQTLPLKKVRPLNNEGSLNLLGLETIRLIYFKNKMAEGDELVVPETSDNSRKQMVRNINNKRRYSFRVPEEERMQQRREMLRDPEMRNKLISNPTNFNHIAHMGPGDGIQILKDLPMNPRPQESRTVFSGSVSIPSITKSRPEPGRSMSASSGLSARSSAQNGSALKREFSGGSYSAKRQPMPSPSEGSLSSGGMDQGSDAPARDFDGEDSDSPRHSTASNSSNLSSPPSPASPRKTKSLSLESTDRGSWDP

Compound: CN(C)CCOc1ccc(-c2nc(-c3ccncc3)c(-c3ccc4c(c3)CC/C4=N\O)[nH]2)cc1
- % of control [1]: 88%
- % of control [2]: 100%

Compound: Nc1cnc(N2CCc3cc(S(=O)(=O)Nc4c(F)cc(Cl)cc4F)cc(N4CCCC4=O)c32)nc1 [TP-020n]
- % of control [3]: 100%
- % of control [4]: 89%

Compound: Cc1cc([C@@H](C)Nc2ccccc2C(=O)O)c2nc(N3CCOCC3)cc(=O)n2c1 [AZD-6482]
- % of control [5]: 100%
- % of control [6]: 81%
- % of control [7]: 96%
